# Ends that are not written are not given here.
# Experiments:
# [1] = tested on: let-7a, let-7g, miR-16-5p and their targets in CHA15 cells; assay: RT-qPCR of mature LIN28A-regulated miRNAs and CDF of let-7-5p / miR-16-5p target mRNAs (Supplementary Fig. 6f); assay type: cell-based, human; parameters: key to let-7a level (RT-qPCR): relative level normalised to U6 snRNA; conditions: for let-7a level (RT-qPCR): Fig. s6f, dot plots, CHA15 cells
# Protocol: cDNA was synthesised using RevertAid Reverse Transcriptase (Thermo Fisher Scientific, EP0441) with synthesised random hexamer (Macrogen) for total RNA or stem-loop primers for miRNA. For RT-qPCR reactions, the SensiFAST SYBR No-ROX kit (Meridian Bioscience) was used according to the manufacturer’s protocol. All data analysis and visualisation were conducted using R 3.6.1 [www.r-project.org] or GraphPad Prism 10. RT primers for miRNA and RT-qPCR primer sequences are provided in Supplementary Data 6.
# Genes regulated by miRNA let-7-5p and miR-16-5p were determined by TargetScanHuman. Among miRNA targets sorted by cumulative weighted context++ score (CWCS)[57], the 100 top genes were selected and analysed using CDF. […]
# Scatter
# (bottom panel), respectively. f Levels of m ature endogenous m iRNAs in CHA15 cells, which were regulated by LIN28A, were assessed using RT -qPCR. Cum ulative f raction of log2 fold change in the expression of genes regulated by let-7-5p and m iR-16- 5p was shown as CDF graphs. T he relative level of m RNA was norm alised to that of U6 snRNA in (c, d, and f). K–S tests were used for e and f. Unpaired Student’s t-test was used for c , d, and f . * p < 0.05, ** p < 0.01, *** p < 0.001. Exact p -values were provided in Source data. Data are presented as m ean values ± SEM. All statistical test used were two- sided. T he m inim um num ber of independent biological replicate experim ents was a and e n = 2, b–d and f n = 3. T he experim ents were conducted three tim es, each iteration producing consistent results.
# CHA15 cells = assay: RT-qPCR of indicated transcripts (NMD targets, pluripotency markers) in CPP-peptide-treated CHA15 cells (Supplementary Fig. 6d); assay type: cell-based, human; conditions: Fig. s6d; for DLK1 mRNA level, mean / FRZB mRNA level, mean / GLI2 mRNA level, mean / MAPK7 mRNA level, mean / NANOG mRNA level, mean / NNAT mRNA level, mean / PDZD4 mRNA level, mean / POU5F1 mRNA level, mean / SERPINB9 mRNA level, mean / SIX3 mRNA level, mean / SLC7A5 mRNA level, mean / SNAP25 mRNA level, mean / SOX2 mRNA level, mean / TRMT61A mRNA level, mean / WLS mRNA level, mean: mean of 3 replicates
# Protocol: For CPP-conjugated peptide delivery, HeLa, 293T, and PA-1 cells were incubated with CPP-conjugated peptides or CPP-FITC at 2 μM in DMEM with 10% FBS for 12 h a day before cell harvest. hPSCs were treated with CPP-conjugated peptides at 10 μM in mTeSR Plus Medium, and the peptide-containing medium was changed every day over 10 days. The ROCK inhibitor (Tocris Bioscience, Y-27632) treated-hPSCs were dissociated into single cells using Accutase (Merck, SCR005) and differentiated into ectoderm, mesoderm, and endoderm using the STEMdiff Trilineage Differentiation Kit ([…] Technologies, 05230) following the manufacturer’s protocol. Differentiated cells treated with CPP-conjugated peptides were analysed at 0, 3, and 5 days for ectoderm and endoderm, and at 0, 3, and 4 days for mesoderm. […]
# cDNA was synthesised using RevertAid Reverse Transcriptase (Thermo Fisher Scientific, EP0441) with synthesised random hexamer (Macrogen) for total RNA or stem-loop primers for miRNA. For RT-qPCR reactions, the SensiFAST SYBR No-ROX kit (Meridian Bioscience) was used according to the manufacturer’s protocol. All data analysis and visualisation were conducted using R 3.6.1 [www.r-project.org] or GraphPad Prism 10. RT primers for miRNA and RT-qPCR primer sequences are provided in Supplementary Data 6. […]
# Scale bars, 100 μm . d (Corresponding to Fig. 6d) RT -qPCR was perform ed to evaluate the level of indicated transcripts upon the indicated peptide treatm ent in CHA15 cells. e T ranscriptom e analysis was perf orm ed using signif icantly changed transcripts (p < 0.05) f rom siLIN28A or siControl in the indicated CPP-peptide treated CHA15 cells. […]
# 5p and m iR-16- 5p was shown as CDF graphs. T he relative level of m RNA was norm alised to that of U6 snRNA in (c, d, and f). K–S tests were used for e and f. Unpaired Student’s t-test was used for c , d, and f . * p < 0.05, ** p < 0.01, *** p < 0.001. Exact p -values were provided in Source data. Data are presented as m ean values ± SEM. All statistical test used were two- sided. T he m inim um num ber of independent biological replicate experim ents was a and e n = 2, b–d and f n = 3. T he experim ents were conducted three tim es, each iteration producing consistent results.
# [2] = unpaired t test, two-tailed, df=4
Substance,"DLK1 mRNA level, mean (CHA15 cells)","FRZB mRNA level, mean (CHA15 cells)","GLI2 mRNA level, mean (CHA15 cells)","MAPK7 mRNA level, mean (CHA15 cells)","NANOG mRNA level, mean (CHA15 cells)","NNAT mRNA level, mean (CHA15 cells)","PDZD4 mRNA level, mean (CHA15 cells)","POU5F1 mRNA level, mean (CHA15 cells)","SERPINB9 mRNA level, mean (CHA15 cells)","SIX3 mRNA level, mean (CHA15 cells)","SLC7A5 mRNA level, mean (CHA15 cells)","SNAP25 mRNA level, mean (CHA15 cells)","SOX2 mRNA level, mean (CHA15 cells)","TRMT61A mRNA level, mean (CHA15 cells)","WLS mRNA level, mean (CHA15 cells)","FRZB, difference between means ± SEM vs. P1 (CHA15 cells; [2])","GLI2, difference between means ± SEM vs. P1 (CHA15 cells; [2])",let-7a level (RT-qPCR) ([1]; replicate 1),let-7a level (RT-qPCR) ([1]; replicate 2),let-7a level (RT-qPCR) ([1]; replicate 3),further results
"KKKWCRKKKSSADEKRYRALKRTAERELLMNA [CPP-P8, CPP conjugated to P8]",–,–,–,–,–,–,–,–,–,–,–,–,–,–,–,–,–,–,–,–,LIN28A-regulating miRNAs and their target mRNAs ([1]; CHA15): did not alter the expression of LIN28A-regulating miRNAs and their target mRNAs
KKKWCRKKKSSADEKRYRALKRTAERELLMNA [P8],56.31,8.725,0.6516,0.7487,0.4762,3.136,0.2348,0.5449,0.7287,16.62,0.3065,0.3657,1.107,0.5794,7.117,7.724 ± 0.7174,-0.3484 ± 0.08883,0.9027,0.8569,0.8754,"DLK1, difference between means ± SEM vs. P1 (CHA15 cells; [2]): 55.31 ± 2.539; MAPK7, difference between means ± SEM vs. P1 (CHA15 cells; [2]): -0.2513 ± 0.07831; NANOG, difference between means ± SEM vs. P1 (CHA15 cells; [2]): -0.5239 ± 0.0638; NNAT, difference between means ± SEM vs. P1 (CHA15 cells; [2]): 2.136 ± 0.5570; PDZD4, difference between means ± SEM vs. P1 (CHA15 cells; [2]): -0.7652 ± 0.01959; POU5F1, difference between means ± SEM vs. P1 (CHA15 cells; [2]): -0.4552 ± 0.05944; SERPINB9, difference between means ± SEM vs. P1 (CHA15 cells; [2]): -0.2711 ± 0.04259; SIX3, difference between means ± SEM vs. P1 (CHA15 cells; [2]): 15.62 ± 1.865; SLC7A5, difference between means ± SEM vs. P1 (CHA15 cells; [2]): -0.6935 ± 0.02913; SNAP25, difference between means ± SEM vs. P1 (CHA15 cells; [2]): -0.6344 ± 0.08552; SOX2, difference between means ± SEM vs. P1 (CHA15 cells; [2]): 0.1072 ± 0.1176; TRMT61A, difference between means ± SEM vs. P1 (CHA15 cells; [2]): -0.4206 ± 0.05922; WLS, difference between means ± SEM vs. P1 (CHA15 cells; [2]): 6.117 ± 0.3119"
"N-MPELQKLQQLKDE-C [P2, peptide derived from the UPF1 (419–700) domain]",–,–,–,–,–,0.9363,–,–,0.9791,–,–,–,–,–,–,-0.02698 ± 0.06622,-0.05239 ± 0.08994,0.9342,0.9709,0.9188,"MAPK7, difference between means ± SEM vs. P1 (CHA15 cells; [2]): 0.03902 ± 0.06368; NNAT, difference between means ± SEM vs. P1 (CHA15 cells; [2]): -0.06363 ± 0.1386; PDZD4, difference between means ± SEM vs. P1 (CHA15 cells; [2]): 0.05466 ± 0.04504; SERPINB9, difference between means ± SEM vs. P1 (CHA15 cells; [2]): -0.02067 ± 0.08291; SIX3, difference between means ± SEM vs. P1 (CHA15 cells; [2]): 0.1242 ± 0.09936; SLC7A5, difference between means ± SEM vs. P1 (CHA15 cells; [2]): 0.1166 ± 0.05272; SNAP25, difference between means ± SEM vs. P1 (CHA15 cells; [2]): 0.01594 ± 0.05751; SOX2, difference between means ± SEM vs. P1 (CHA15 cells; [2]): -0.1171 ± 0.06917; TRMT61A, difference between means ± SEM vs. P1 (CHA15 cells; [2]): 0.0576 ± 0.08417; WLS, difference between means ± SEM vs. P1 (CHA15 cells; [2]): -0.1429 ± 0.08376"
"N-QKLDQKELQLEPM-C [P1, reference compound]",1,1,1,1,1,–,1,1,–,1,1,1,1,1,1,–,–,0.8272,1.208,0.9649,–

# From PMC10762078, “Role of UPF1-LIN28A interaction during early differentiation of pluripotent stem cells” (Nature Communications, 2024)
